{"source": "patent US6334999B1", "about": "“Liposomal aerosols for delivery of chemotherapeutic retinoids to the lungs” (Research Development Foundation, priority 1999, dated 2002)", "origin": "cited, not measured here", "details": "mouse, in vivo"}
{"smiles": "CC1=C(/C=C/C(C)=C/C=C/C(C)=C/C(=O)O)C(C)(C)CCC1", "note": "[free ATRA, all-trans-retinoic acid]", "values": [{"measurement": "dose exerting toxic effects", "result": "25-30 mg/kg of body weight"}]}
